In patent US20260184710A1, “CASITAS B-LINEAGE LYMPHOMA PROTOONCOGENE B (CBL-B) DEGRADING COMPOUNDS AND ASSOCIATED METHODS OF USE” (Arvinas Operations, Inc., priority 2022, published 2026):

Tests used:
[1] = target: T1, Cbl-b (Homo sapiens, UniProt Q13191); experiment: Cbl-b Degradation Method A (FACS, anti-Cbl-b antibody staining); format: cell-based; settings: Cbl-b-HiBit KI Jurkat Cells, incubated at least 20 hours; for Dmax: Jurkat, read-out: Cbl-b Degredation Method A Dmax (%)
T1 construct: Cbl-b-HiBit KI Jurkat Cells were purchased from Promega; host or cells: Cbl-b-HiBiT knock-in Jurkat cells
T1 sequence (Q13191 whole entry): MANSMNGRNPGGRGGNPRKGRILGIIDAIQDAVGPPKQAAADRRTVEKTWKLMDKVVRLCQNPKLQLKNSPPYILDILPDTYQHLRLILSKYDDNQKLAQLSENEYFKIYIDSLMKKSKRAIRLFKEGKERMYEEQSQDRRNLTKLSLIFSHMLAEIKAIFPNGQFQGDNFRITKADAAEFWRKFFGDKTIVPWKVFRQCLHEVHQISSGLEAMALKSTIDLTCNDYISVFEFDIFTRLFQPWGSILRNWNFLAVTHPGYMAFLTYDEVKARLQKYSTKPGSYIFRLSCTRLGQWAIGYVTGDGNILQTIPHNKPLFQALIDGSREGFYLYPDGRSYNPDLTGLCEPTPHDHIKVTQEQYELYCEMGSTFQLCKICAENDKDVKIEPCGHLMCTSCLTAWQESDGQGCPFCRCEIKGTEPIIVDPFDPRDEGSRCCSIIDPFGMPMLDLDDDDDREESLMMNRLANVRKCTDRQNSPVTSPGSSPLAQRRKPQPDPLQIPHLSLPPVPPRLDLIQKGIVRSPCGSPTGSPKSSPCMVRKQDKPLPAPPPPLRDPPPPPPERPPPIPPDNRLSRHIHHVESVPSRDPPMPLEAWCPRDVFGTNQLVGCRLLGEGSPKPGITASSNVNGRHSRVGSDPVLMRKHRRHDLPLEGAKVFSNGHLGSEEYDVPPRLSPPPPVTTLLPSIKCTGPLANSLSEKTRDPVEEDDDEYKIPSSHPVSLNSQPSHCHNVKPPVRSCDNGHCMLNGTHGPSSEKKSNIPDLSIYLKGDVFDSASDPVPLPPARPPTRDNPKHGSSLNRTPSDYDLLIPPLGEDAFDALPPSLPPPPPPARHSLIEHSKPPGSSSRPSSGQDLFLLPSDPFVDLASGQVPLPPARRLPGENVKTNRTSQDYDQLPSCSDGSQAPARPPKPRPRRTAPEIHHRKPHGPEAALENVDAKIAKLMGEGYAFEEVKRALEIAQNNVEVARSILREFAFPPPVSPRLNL
How it was run: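 Cbl-b-HiBit KI Jurkat cells treated with compound for at least 20 h at 37 °C, then fixed, permeabilized and stained with anti-Cbl-b antibody plus anti-rabbit AF488 secondary. Cbl-b levels read by FACS; DC50 and Dmax (percent of control) derived.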

[2] = target: T1, Cbl-b; experiment: Cbl-b Degradation Method B (Nano-Glo HiBiT lytic detection); format: cell-based; settings: Cbl-b-HiBit KI Jurkat Cells, incubated at least 6-24 hours; for Cbl-b Degredation Method B Dmax (%) / Dmax: maximum degradation observed; for Dmax: read-out: Cbl-b Degredation Method B Dmax (%)
How it was run: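 Cbl-b-HiBiT knock-in Jurkat cells (20,000/well) were treated after ~24 h plating with an 11-point 1:3 series for 6-24 h at 37° C. Remaining Cbl-b measured by Nano-Glo HiBiT lytic luminescence. DC50 and Dmax expressed as % of control.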

[3] = half maximal degradation, read-out: Cbl-b Degredation Method A IC50
[4] = half maximal degradation, read-out: Cbl-b Degredation Method B IC50

| SMILES | DC50 [1, 3] | Dmax ([1]; maximum degradation observed) | DC50 [2, 4] | Cbl-b Degredation Method B Dmax (%) [2] | IC50 [1, 3] | Cbl-b Degredation Method A Dmax (%) ([1]; maximum degradation observed) | IC50 [2, 4] | Dmax [2] |
| --- | --- | --- | --- | --- | --- | --- | --- | --- |
| Cn1cnnc1CC1(c2cccc(N3Cc4c(cc(CN5CCN(C[C@H]6CC[C@H](OC7CCN(c8cccc9c8n(C8CC8)c(=O)n9C8CCC(=O)NC8=O)CC7)CC6)CC5(C)C)cc4C(F)(F)F)C3=O)c2)CC(C#N)C1 (stereo partly drawn) [Example 312, (1r**,3r**)-3-(3-{6-[(2,2-dimethyl-4-{[(1r*,4r*)-4-({1-[3-cyclopropyl-1-(2,6-dioxopiperidin-3-yl)-2-oxo-2,3-dihydro-1H-1,3-benzodiazol-4-yl]piperidin-4-yl}oxy)cyclohexyl]methyl}piperazin-1-yl)methyl]-1-oxo-4-(trifluoromethyl)-2,3-dihydro-1H-isoindol-2-yl}phenyl)-3-[(4-methyl-4H-1,2,4-triazol-3-yl)methyl]cyclobutane-1-carbonitrile] | 0.05 to 0.5 µM | 35 to 70% | < 0.005 µM | C (C ≤ 35) | – | – | – | – |
| Cc1cc(N2CCC(C(C)(C)N3CCC4(CC3)CN(c3cc5c(c(C(F)(F)F)c3)CN(c3cccc([C@]6(Cc7nncn7C)C[C@@H](C#N)C6)c3)C5=O)C4)CC2)c(F)c2c1C(=O)N([C@@H]1CCC(=O)NC1=O)C2 [Example 278, (1r, 3r)-3-(3-{6-[7-(2-{1-[2-(2,6-dioxopiperidin-3-yl)-4-fluoro-7-methyl-1-oxo-2,3-dihydro-1H-isoindol-5-yl]piperidin-4-yl}propan-2-yl)-2,7-diazaspiro[3.5]nonan-2-yl]-1-oxo-4-(trifluoromethyl)-2,3-dihydro-1H-isoindol-2-yl}phenyl)-3-[(4-methyl-4H-1,2,4-triazol-3-yl)methyl]cyclobutane-1-carbonitrile] | – | – | – | C (C ≤ 35) | 0.05 to 0.5 µM | B (35 < B < 70) | 0.005 to 0.05 µM | – |
| CC1CN(C[C@H]2CC[C@H](OC3CCN(c4ccc5c(n4)C(C)N(C4CCC(=O)NC4=O)C5=O)CC3)CC2)CCN1Cc1cc2c(c(C(F)(F)F)c1)CN(c1cccc([C@]3(Cc4nncn4C)C[C@@H](C#N)C3)c1)C2=O (stereo partly drawn) [Example 208, (1r,3r)-3-(3-{6-[(2-methyl-4-{[(1r,4r)-4-({1-[6-(2,6-dioxopiperidin-3-yl)-7-methyl-5-oxo-5H,6H,7H-pyrrolo[3,4-b]pyridin-2-yl]piperidin-4-yl}oxy)cyclohexyl]methyl}piperazin-1-yl)methyl]-1-oxo-4-(trifluoromethyl)-2,3-dihydro-1H-isoindol-2-yl}phenyl)-3-[(4-methyl-4H-1,2,4-triazol-3-yl)methyl]cyclobutane-1-carbonitrile] | 0.005 to 0.05 µM | 35 to 70% | < 0.005 µM | – | – | – | – | 35 to 70% |
| COc1c(N2CCC(O[C@H]3CC[C@H](CN4CCN(Cc5cc6c(c(C(F)(F)F)c5)CN(c5cccc(C7(Cc8nncn8C)COC7)c5)C6=O)CC4)CC3)CC2)ccc2c1CN(C1CCC(=O)NC1=O)C2=O (stereo partly drawn) [Example 193, 3-[4-methoxy-1-oxo-5-(4-{[(1r,4r)-4-[(4-{[2-(3-{3-[(4-methyl-4H-1,2,4-triazol-3-yl)methyl]oxetan-3-yl}phenyl)-3-oxo-7-(trifluoromethyl)-2,3-dihydro-1H-isoindol-5-yl]methyl}piperazin-1-yl)methyl]cyclohexyl]oxy}piperidin-1-yl)-2,3-dihydro-1H-isoindol-2-yl]piperidine-2,6-dione] | < 0.005 µM | > 70% | < 0.005 µM | – | – | – | – | 35 to 70% |
| CC1c2nc(N3CCC(O[C@H]4CC[C@H](CN5CCC6(CCN(c7cc8c(c(C(F)(F)F)c7)CN(c7cccc([C@]9(Cc%10nncn%10C)C[C@@H](C#N)C9)c7)C8=O)C6)C5)CC4)CC3)ccc2C(=O)N1C1CCC(=O)NC1=O (stereo partly drawn) [Example 179, (1r,3r)-3-[(4-methyl-4H-1,2,4-triazol-3-yl)methyl]-3-{3-[1-oxo-6-(7-{[(1r,4r)-4-({1-[6-(2,6-dioxopiperidin-3-yl)-7-methyl-5-oxo-5H,6H,7H-pyrrolo[3,4-b]pyridin-2-yl]piperidin-4-yl}oxy)cyclohexyl]methyl}-2,7-diazaspiro[4.4]nonan-2-yl)-4-(trifluoromethyl)-2,3-dihydro-1H-isoindol-2-yl]phenyl}cyclobutane-1-carbonitrile] | 0.005 to 0.05 µM | 35 to 70% | < 0.005 µM | – | – | – | – | 35 to 70% |
| CC1c2nc(N3CCC(O[C@H]4CC[C@H](CN5CCN(Cc6cc7c(c(C(F)(F)F)c6)CN(c6cccc(C8(Cc9nncn9C9CC9)COC8)c6)C7=O)CC5)CC4)CC3)ccc2C(=O)N1C1CCC(=O)NC1=O (stereo partly drawn) [Example 211, 3-[7-methyl-5-oxo-2-(4-{[(1r,4r)-4-[(4-{[2-(3-{3-[(4-cyclopropyl-4H-1,2,4-triazol-3-yl)methyl]oxetan-3-yl}phenyl)-3-oxo-7-(trifluoromethyl)-2,3-dihydro-1H-isoindol-5-yl]methyl}piperazin-1-yl)methyl]cyclohexyl]oxy}piperidin-1-yl)-5H,6H,7H-pyrrolo[3,4-b]pyridin-6-yl]piperidine-2,6-dione] | < 0.005 µM | < 35% | > 0.5 µM | – | – | – | – | – |
| CC1c2nc(N3CCC(O[C@H]4CC[C@H](CN5C[C@@H]6C[C@H]5CN6Cc5cc6c(c(C(F)(F)F)c5)CN(c5cccc([C@]7(Cc8nncn8C)C[C@H](C#N)C7)c5)C6=O)CC4)CC3)ccc2C(=O)N1C1CCC(=O)NC1=O (stereo partly drawn) [Example 214, (1r,3r)-3-[(4-methyl-4H-1,2,4-triazol-3-yl)methyl]-3-[3-(1-oxo-6-{[(1S,4S)-5-{[(1r,4r)-4-({1-[6-(2,6-dioxopiperidin-3-yl)-7-methyl-5-oxo-5H,6H,7H-pyrrolo[3,4-b]pyridin-2-yl]piperidin-4-yl}oxy)cyclohexyl]methyl}-2,5-diazabicyclo[2.2.1]heptan-2-yl]methyl}-4-(trifluoromethyl)-2,3-dihydro-1H-isoindol-2-yl)phenyl]cyclobutane-1-carbonitrile] | 0.005 to 0.05 µM | 35 to 70% | < 0.005 µM | – | – | – | – | 35 to 70% |
| CC1c2nc(N3CCC(CN4CCN(CC5CCN(Cc6cc7c(c(C(F)(F)F)c6)CN(c6cccc([C@]8(Cc9nncn9C)C[C@@H](C#N)C8)c6)C7=O)C6(CC6)C5)CC4)CC3)ccc2C(=O)N1C1CCC(=O)NC1=O (stereo partly drawn) [Example 310, (1r,3r)-3-(3-{6-[(7-{[4-({1-[6-(2,6-dioxopiperidin-3-yl)-7-methyl-5-oxo-5H,6H,7H-pyrrolo[3,4-b]pyridin-2-yl]piperidin-4-yl}methyl)piperazin-1-yl]methyl}-4-azaspiro[2.5]octan-4-yl)methyl]-1-oxo-4-(trifluoromethyl)-2,3-dihydro-1H-isoindol-2-yl}phenyl)-3-[(4-methyl-4H-1,2,4-triazol-3-yl)methyl]cyclobutane-1-carbonitrile] | 0.005 to 0.05 µM | 35 to 70% | 0.005 to 0.05 µM | C (C ≤ 35) | – | – | – | – |
| Cn1cnnc1CC1(c2cccc(N3Cc4c(cc(CN5CCC(CC6CN(c7cccc8c7C(=O)N(C7CCC(=O)NC7=O)C8=O)C6)CC5)cc4C(F)(F)F)C3=O)c2)COC1 (stereo not drawn) [Example 99, 2-(2,6-dioxopiperidin-3-yl)-4-{3-[(1-{[2-(3-{3-[(4-methyl-4H-1,2,4-triazol-3-yl)methyl]oxetan-3-yl}phenyl)-3-oxo-7-(trifluoromethyl)-2,3-dihydro-1H-isoindol-5-yl]methyl}piperidin-4-yl)methyl]azetidin-1-yl}-2,3-dihydro-1H-isoindole-1,3-dione] | > 0.5 µM | – | > 0.5 µM | – | – | – | – | – |
| Cn1cnnc1CC1(c2cccc(N3Cc4c(cc(N5CCN(CC6CCN(c7ccc8c(c7)C(=O)N(C7CCC(=O)NC7=O)C8=O)CC6)CC5)cc4C(F)(F)F)C3=O)c2)COC1 (stereo not drawn) [Example 122, 2-(2,6-dioxopiperidin-3-yl)-5-[4-({4-[2-(3-{3-[(4-methyl-4H-1,2,4-triazol-3-yl)methyl]oxetan-3-yl}phenyl)-3-oxo-7-(trifluoromethyl)-2,3-dihydro-1H-isoindol-5-yl]piperazin-1-yl}methyl)piperidin-1-yl]-2,3-dihydro-1H-isoindole-1,3-dione] | 0.05 to 0.5 µM | – | > 0.5 µM | – | – | – | – | – |
| CC1c2nc(N3CCC(O[C@H]4CC[C@H](CN5CCC6(C5)CN(c5cc7c(c(C(F)(F)F)c5)CN(c5cccc([C@]8(Cc9nncn9C)C[C@@H](C#N)C8)c5)C7=O)C6)CC4)CC3)ccc2C(=O)N1C1CCC(=O)NC1=O (stereo partly drawn) [Example 178, (1r,3r)-3-[(4-methyl-4H-1,2,4-triazol-3-yl)methyl]-3-{3-[1-oxo-6-(6-{[(1r,4r)-4-({1-[6-(2,6-dioxopiperidin-3-yl)-7-methyl-5-oxo-5H,6H,7H-pyrrolo[3,4-b]pyridin-2-yl]piperidin-4-yl}oxy)cyclohexyl]methyl}-2,6-diazaspiro[3.4]octan-2-yl)-4-(trifluoromethyl)-2,3-dihydro-1H-isoindol-2-yl]phenyl}cyclobutane-1-carbonitrile] | 0.005 to 0.05 µM | 35 to 70% | < 0.005 µM | – | – | – | – | 35 to 70% |
